Test results as given in ChEMBL document CHEMBL2321828, “Interrogation of the Active Sites of Protein Arginine Deiminases (PAD1, -2, and -4) Using Designer Probes” (ACS Med Chem Lett, 2013).

Tests used:
[1] = molecular target: Protein-arginine deiminase type-4 (Homo sapiens) (UniProt Q9UM07); assay: Ratio of Kinact to Ki for human PAD4 using BAEE as substrate after 30 mins
[2] = molecular target: Protein-arginine deiminase type-2 (Mus musculus) (UniProt Q08642); assay: Ratio of Kinact to Ki for mouse PAD2 using BAEE as substrate after 30 mins
[3] = molecular target: T1, Protein-arginine deiminase type-1 (Homo sapiens) (UniProt Q9ULC6); assay: Ratio of Kinact to Ki for human PAD1 using BAEE as substrate after 30 mins
T1 sequence (whole entry): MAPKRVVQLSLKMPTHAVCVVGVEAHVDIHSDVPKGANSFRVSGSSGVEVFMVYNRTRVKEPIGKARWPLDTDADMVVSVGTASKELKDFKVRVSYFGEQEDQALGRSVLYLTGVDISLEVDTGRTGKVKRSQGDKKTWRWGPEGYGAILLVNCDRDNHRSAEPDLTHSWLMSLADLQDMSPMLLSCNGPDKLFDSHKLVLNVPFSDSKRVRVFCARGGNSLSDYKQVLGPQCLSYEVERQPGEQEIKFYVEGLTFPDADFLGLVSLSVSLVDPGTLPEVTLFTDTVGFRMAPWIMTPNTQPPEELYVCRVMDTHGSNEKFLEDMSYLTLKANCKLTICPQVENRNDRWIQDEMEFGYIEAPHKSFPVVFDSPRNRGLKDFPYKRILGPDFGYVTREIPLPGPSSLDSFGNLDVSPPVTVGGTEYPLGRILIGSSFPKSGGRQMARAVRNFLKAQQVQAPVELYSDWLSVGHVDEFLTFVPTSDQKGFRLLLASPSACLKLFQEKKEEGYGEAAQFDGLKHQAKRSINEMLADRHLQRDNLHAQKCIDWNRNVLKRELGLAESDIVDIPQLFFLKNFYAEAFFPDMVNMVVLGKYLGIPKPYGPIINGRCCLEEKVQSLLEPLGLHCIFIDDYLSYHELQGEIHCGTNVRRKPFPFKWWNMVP

Sequence of Protein-arginine deiminase type-4 (Homo sapiens) (Q9UM07 whole entry): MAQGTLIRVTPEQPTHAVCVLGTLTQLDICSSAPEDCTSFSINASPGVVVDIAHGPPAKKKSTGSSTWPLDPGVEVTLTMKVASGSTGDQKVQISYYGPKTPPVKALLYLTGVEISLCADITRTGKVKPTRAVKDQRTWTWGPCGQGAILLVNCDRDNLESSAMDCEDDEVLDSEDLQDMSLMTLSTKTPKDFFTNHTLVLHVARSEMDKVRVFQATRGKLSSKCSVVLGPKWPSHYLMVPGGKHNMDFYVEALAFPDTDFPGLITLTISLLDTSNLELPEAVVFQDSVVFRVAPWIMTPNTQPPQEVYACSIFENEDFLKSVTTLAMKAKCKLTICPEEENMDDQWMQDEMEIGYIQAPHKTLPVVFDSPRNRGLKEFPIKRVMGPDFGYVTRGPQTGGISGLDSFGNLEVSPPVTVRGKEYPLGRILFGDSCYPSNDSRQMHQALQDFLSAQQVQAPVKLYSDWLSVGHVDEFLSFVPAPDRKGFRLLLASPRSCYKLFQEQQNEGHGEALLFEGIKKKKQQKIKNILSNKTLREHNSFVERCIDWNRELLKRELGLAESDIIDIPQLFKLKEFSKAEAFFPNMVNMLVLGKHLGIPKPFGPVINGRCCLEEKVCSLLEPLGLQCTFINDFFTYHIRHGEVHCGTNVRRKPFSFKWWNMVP
Sequence of Protein-arginine deiminase type-2 (Mus musculus) (Q08642 whole entry): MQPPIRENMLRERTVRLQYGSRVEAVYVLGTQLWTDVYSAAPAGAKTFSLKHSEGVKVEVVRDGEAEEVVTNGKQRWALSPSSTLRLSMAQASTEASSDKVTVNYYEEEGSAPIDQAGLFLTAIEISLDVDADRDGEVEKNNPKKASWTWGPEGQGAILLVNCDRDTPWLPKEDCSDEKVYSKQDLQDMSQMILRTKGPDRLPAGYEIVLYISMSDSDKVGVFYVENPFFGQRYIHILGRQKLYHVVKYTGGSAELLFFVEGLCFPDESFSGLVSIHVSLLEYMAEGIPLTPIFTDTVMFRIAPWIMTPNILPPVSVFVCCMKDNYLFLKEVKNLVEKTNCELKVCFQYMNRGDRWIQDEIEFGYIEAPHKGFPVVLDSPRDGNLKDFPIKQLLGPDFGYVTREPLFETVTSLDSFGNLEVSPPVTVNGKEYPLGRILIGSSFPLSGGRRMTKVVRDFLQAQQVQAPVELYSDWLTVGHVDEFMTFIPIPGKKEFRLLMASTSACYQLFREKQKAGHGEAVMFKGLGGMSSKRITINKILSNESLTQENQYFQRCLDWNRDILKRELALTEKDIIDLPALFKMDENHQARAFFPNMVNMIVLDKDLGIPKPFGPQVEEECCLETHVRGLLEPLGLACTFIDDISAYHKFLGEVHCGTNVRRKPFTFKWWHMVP

Row | Ratio [1] | Ratio [2] | Ratio [3] | Compound
1 | 50 M⁻¹ min⁻¹ | 120 M⁻¹ min⁻¹ | 62 M⁻¹ min⁻¹ | COC(=O)[C@H](CCCCNC(=N)CCl)NC(C)=O
2 | 183 M⁻¹ min⁻¹ | 50 M⁻¹ min⁻¹ | 111 M⁻¹ min⁻¹ | COC(=O)[C@H](CCNC(=N)CCl)NC(C)=O
3 | 865 M⁻¹ min⁻¹ | 167 M⁻¹ min⁻¹ | 497 M⁻¹ min⁻¹ | COC(=O)[C@H](CCCNC(=N)CCl)NC(C)=O
4 | 60 M⁻¹ min⁻¹ | 9 M⁻¹ min⁻¹ | 32 M⁻¹ min⁻¹ | N=C(N)CCl
